Results reported in the supplement of paper PMC11208160.

experiment: recombinant UMI read abundance after kanamycin selection (control-corrected) (log10(CPM+1)); higher = more efficient recombination; extreme values may be limits of the assay; sequences stand for … in AGTGCAGAGAAAATCGGCCAGTTTTCTCTGCCTGCAGTCCGCATGCCGTGGGACCCCTTGGGTTCTAACCTGTTGCCTAGATTTATGCAGCGGACTGCCTTTCTCCCAAAGTGATAAACCGG…AGGTTGGTTTCACT; site = the 11-nt donor
How it was run: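 The measure is log10(CPM+1) for recombinant UMIs. These were PCR-amplified across the donor–target junction and sequenced after Escherichia coli carrying a donor and donor-binding-loop pair library and a target plasmid with T7-inducible IS621 bridge recombinase was plated on IPTG (0.07 mM) plus kanamycin or unselected. CPM were averaged over two replicates and scaled by control-derived factors.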
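Note: IS621 bridge recombinase in Escherichia coli cells against a fixed T5 target plasmid.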

Sequence | recombinant UMI read abundance (log10)
TGGCCGGCATGGACCGGTTTTCCCGGTAATCCGTATTTGGG (site TGGCCGGCTGC) | 0
TGGCCGGCATGGACCGGTTTTCCCGGTAATCCGTATTTGGG (site TGGCCGGCTTC) | 0.00405
TGGCCGGCATGGACCGGTTTTCCCGGTAATCCGTATTTGTC (site TGGCCGGCTGA) | 0.815
TGGCCGGCATGGACCGGTTTTCCCGGTAATCCGTATTTGTC (site TGGCCGGCTGC) | 0
TGGCCGGCATGGACCGGTTTTCCCGGTAATCCGTATTTGTC (site TGGCCGGCTGG) | 0
TGGCCGGCATGGACCGGTTTTCCCGGTAATCCGTATTTGTC (site TGGCCGGCTGT) | 0
TGGCGGGCATGGACCGGTTTTCCCGGTAATCCGTATTTGGC (site TGGCAGGCTGC) | 1.38
TGGCGGGCATGGACCGGTTTTCCCGGTAATCCGTATTTGGC (site TGGCCGGCTGC) | 0.00581
TGGCGGGCATGGACCGGTTTTCCCGGTAATCCGTATTTGGC (site TGGCGGGCTGC) | 1.79
TGGCGGGCATGGACCGGTTTTCCCGGTAATCCGTATTTGGC (site TGGCTGGCTGC) | 1.01
TGGCGGGCATGGACCGGTTTTCCCGGTAATCCGTATTTGTT (site TGGCGGGCTAA) | 0.701
TGGCTCCCATGGACCGGTTTTCCCGGTAATCCGTATTTGGT (site TGGCTCCCTAC) | 0.203
TGGCTGGCATGGACCGGTTTTCCCGGTAATCCGTATTTGGC (site TGGCAGGCTGC) | 0
TGGCTGGCATGGACCGGTTTTCCCGGTAATCCGTATTTGGC (site TGGCCGGCTGC) | 0
TGGCTGGCATGGACCGGTTTTCCCGGTAATCCGTATTTGGC (site TGGCGGGCTGC) | 0
TGGCTGGCATGGACCGGTTTTCCCGGTAATCCGTATTTGGC (site TGGCTGGCTGC) | 1.33
TGGGCAACATGGACCGGTTTTCCCGGTAATCCGTATTTGTG (site TGGGCAACTCA) | 0.0056
TGGGCACCATGGACCGGTTTTCCCGGTAATCCGTATTTGCA (site AGGGCACCTTG) | 0.00499
TGGGCACCATGGACCGGTTTTCCCGGTAATCCGTATTTGCA (site CGGGCACCTTG) | 0.00478

Sequence | recombinant UMI read abundance (log10)
TGGGCACCATGGACCGGTTTTCCCGGTAATCCGTATTTGCA (site GGGGCACCTTG) | 0
TGGGCACCATGGACCGGTTTTCCCGGTAATCCGTATTTGCA (site TGGGCACCTTG) | 0.00258
TGGGCGGCATGGACCGGTTTTCCCGGTAATCCGTATTTGAT (site TGGGCGGCTAT) | 1.11
TGGTAAGCATGGACCGGTTTTCCCGGTAATCCGTATTTGGC (site TGGTAAGCTGC) | 2.86
TGGTAATCATGGACCGGTTTTCCCGGTAATCCGTATTTGTG (site TGGTAATCTCA) | 1.65
TGGTCACCATGGACCGGTTTTCCCGGTAATCCGTATTTGTC (site GTACTCACTCC) | 0.00879
TGGTGACCATGGACCGGTTTTCCCGGTAATCCGTATTTGTC (site TGGTGACCTGA) | 0
TGTAAACCATGGACCGGTTTTCCCGGTAATCCGTATTTGAC (site TGTAAACCTGT) | 0
TGTAAACCATGGACCGGTTTTCCCGGTAATCCGTATTTGAC (site TGTACACCTGT) | 0
TGTAAACCATGGACCGGTTTTCCCGGTAATCCGTATTTGAC (site TGTAGACCTGT) | 0
TGTAAACCATGGACCGGTTTTCCCGGTAATCCGTATTTGAC (site TGTATACCTGT) | 0
TGTAAGACATGGACCGGTTTTCCCGGTAATCCGTATTTGGC (site TGTAAGACTGC) | 0
TGTACAACATGGACCGGTTTTCCCGGTAATCCGTATTTGAG (site TGTACAACTCT) | 0.0145
TGTACACCATGGACCGGTTTTCCCGGTAATCCGTATTTGAA (site TGTACACCTAT) | 0.0146
TGTACACCATGGACCGGTTTTCCCGGTAATCCGTATTTGAA (site TGTACACCTCT) | 0.00905
TGTACACCATGGACCGGTTTTCCCGGTAATCCGTATTTGAA (site TGTACACCTGT) | 0
TGTACACCATGGACCGGTTTTCCCGGTAATCCGTATTTGAA (site TGTACACCTTT) | 0.0198
TGTACACCATGGACCGGTTTTCCCGGTAATCCGTATTTGAT (site TGTACACCTAT) | 0.00557
TGTACACCATGGACCGGTTTTCCCGGTAATCCGTATTTGAT (site TGTACACCTCT) | 0

Sequence | recombinant UMI read abundance (log10)
TGTACACCATGGACCGGTTTTCCCGGTAATCCGTATTTGAT (site TGTACACCTGT) | 0
TGTACACCATGGACCGGTTTTCCCGGTAATCCGTATTTGAT (site TGTACACCTTT) | 0.00971
TGTACCCCATGGACCGGTTTTCCCGGTAATCCGTATTTGAC (site TGTACACCTGT) | 0
TGTACCCCATGGACCGGTTTTCCCGGTAATCCGTATTTGAC (site TGTACCCCTGT) | 1.52
TGTACCCCATGGACCGGTTTTCCCGGTAATCCGTATTTGAC (site TGTACGCCTGT) | 0
TGTACCCCATGGACCGGTTTTCCCGGTAATCCGTATTTGAC (site TGTACTCCTGT) | 0.00417
TGTACTCCATGGACCGGTTTTCCCGGTAATCCGTATTTGAC (site TGTACACCTGT) | 0
TGTACTCCATGGACCGGTTTTCCCGGTAATCCGTATTTGAC (site TGTACCCCTGT) | 0.817
TGTACTCCATGGACCGGTTTTCCCGGTAATCCGTATTTGAC (site TGTACGCCTGT) | 0
TGTACTCCATGGACCGGTTTTCCCGGTAATCCGTATTTGAC (site TGTACTCCTGT) | 0
TGTAGTGCATGGACCGGTTTTCCCGGTAATCCGTATTTGCG (site TGTAGTGCTCG) | 0.963
TGTCCCCCATGGACCGGTTTTCCCGGTAATCCGTATTTGTA (site TGTACCCCTTA) | 0.013
TGTCCCCCATGGACCGGTTTTCCCGGTAATCCGTATTTGTA (site TGTCCCCCTTA) | 0.0699
TGTCCCCCATGGACCGGTTTTCCCGGTAATCCGTATTTGTA (site TGTGCCCCTTA) | 0.0174
TGTCCCCCATGGACCGGTTTTCCCGGTAATCCGTATTTGTA (site TGTTCCCCTTA) | 0.0128
TGTCTAACATGGACCGGTTTTCCCGGTAATCCGTATTTGGC (site TGTCTAACTGC) | 0.011
TGTCTATCATGGACCGGTTTTCCCGGTAATCCGTATTTGAC (site TGTCTATCTGT) | 0
TGTGATACATGGACCGGTTTTCCCGGTAATCCGTATTTGCC (site TGTGATACTGG) | 0
TGTGATTCATGGACCGGTTTTCCCGGTAATCCGTATTTGTG (site TGTGATTCTCA) | 0.304
